In the supplement of paper PMC10883282:

Columns and labels:
Assay in all cases: relative viability vs DMSO control (72 h) (fraction); higher = more viable cells
[1] = tested on: A204
Method in brief: (§1)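 Sarcoma cell lines were seeded in 384-well plates at densities set to reach 80–90% confluence. After 24 h, 2.5 µl of serially diluted compound was added (source plates 10 mM to 0.0002 mM), and plates were held 72 h at 37 °C, 5% CO2, with 0.1% DMSO vehicle and a 5 µM positive control. Relative viability came from ATPLite readings as percent growth, averaged over up to triplicate wells. Data were rescaled so full viability equals 1 and none equals 0.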

[2] = tested on: HS729
Method in brief: as §1

[3] = tested on: KHOS-240S
Method in brief: as §1

[4] = tested on: SW982
Method in brief: as §1

[5] = tested on: SYO-1
Method in brief: as §1

Cc1cn(-c2cc(NC(=O)c3ccc(C)c(Nc4nccc(-c5cnccn5)n4)c3)cc(C(F)(F)F)c2)cn1 [Radotinib]
relative viability
Settings	[1]	[2]	[3]	[4]	[5]
0.00017 µM	1.09	0.995	1.07	1.066	0.976
0.00051 µM	1.11	1.01	1.07	1.07	0.978
0.00152 µM	1.09	1.02	1.07	1.08	0.987
0.00457 µM	1.13	1.03	1.07	1.07	0.967
0.01372 µM	1.14	0.995	1.05	1.069	0.989
0.04115 µM	1.13	0.99	1.06	1.08	0.988
0.1235 µM	1.11	1.02	1.07	1.1	0.993
0.3704 µM	1.07	1.03	1.05	1.11	0.945
1.111 µM	0.836	0.995	1.04	1.11	0.802
3.333 µM	0.629	0.8744	1.05	1.13	0.688
10 µM	0.451	0.875	1.02	1.12	0.644

CO[C@H]1C[C@@H]2CC[C@@H](C)[C@@](O)(O2)C(=O)C(=O)N2CCCC[C@H]2C(=O)O[C@H]([C@H](C)C[C@@H]2CC[C@@H](O)[C@H](OC)C2)CC(=O)[C@H](C)/C=C(\C)[C@@H](O)[C@@H](OC)C(=O)[C@H](C)C[C@H](C)/C=C/C=C/C=C/1C [Rapamycin]
relative viability
Settings	[1]	[2]	[3]	[4]	[5]
0.00017 µM	0.894	0.98	0.9934	0.919	0.954
0.00051 µM	0.707	0.999	0.975	0.86	0.893
0.00152 µM	0.614	1.01	0.942	0.763	0.875
0.00457 µM	0.542	0.972	0.858	0.695	0.836
0.01372 µM	0.513	0.97	0.809	0.634	0.826
0.04115 µM	0.499	0.926	0.775	0.597	0.792
0.1235 µM	0.489	0.962	0.766	0.567	0.767
0.3704 µM	0.464	0.877	0.746	0.603	0.734
1.111 µM	0.453	0.918	0.734	0.586	0.706
3.333 µM	0.425	0.891	0.7183	0.597	0.683
10 µM	0.408	0.92	0.688	0.591	0.66

C=CC(=O)Nc1cccc(Nc2nc(Nc3ccc(N4CCN(C(C)=O)CC4)cc3OC)ncc2C(F)(F)F)c1 [Rociletinib]
relative viability
Settings	[1]	[2]	[3]	[4]	[5]
0.00017 µM	1.06	1.01	1.08	1.01	0.99
0.00051 µM	1.08	0.925	1.06	1.05	0.983
0.00152 µM	1.13	0.9024	1.07	1.08	0.949
0.00457 µM	1.1	0.9205	1.07	1.07	0.93
0.01372 µM	1.12	0.902	1.07	1.05	0.893
0.04115 µM	1.04	0.924	1.03	1.04	0.903
0.1235 µM	1.11	0.89	1.08	1.04	0.872
0.3704 µM	1.08	0.812	1.02	1.05	0.867
1.111 µM	1.03	0.697	0.928	0.911	0.749
3.333 µM	0.589	0.573	0.774	0.6095	0.459
10 µM	0.302	0.343	0.491	0.265	0.118

CN(C)C[C@@H]1CCn2cc(c3ccccc32)C2=C(C(=O)NC2=O)c2cn(c3ccccc23)CCO1 [Ruboxistaurin]
relative viability
Settings	[1]	[2]	[3]	[4]	[5]
0.00017 µM	1.08	0.917	1.04	1.03	0.962
0.00051 µM	1.07	0.936	1.05	1.03	0.9554
0.00152 µM	1.08	0.8749	1.03	1.04	0.962
0.00457 µM	1.06	0.882	1.04	1.03	0.941
0.01372 µM	1.06	0.895	1.02	1.05	0.931
0.04115 µM	1.08	0.939	1.02	1.04	0.933
0.1235 µM	1.03	0.894	1.03	1.04	0.899
0.3704 µM	1.05	0.819	1.014	1.03	0.849
1.111 µM	0.881	0.917	1.04	0.949	0.79
3.333 µM	0.808	0.835	1.03	0.846	0.347
10 µM	0.0478	0.812	0.715	0.349	-0.0266

CN1CCN(CCOc2cc(OC3CCOCC3)c3c(Nc4c(Cl)ccc5c4OCO5)ncnc3c2)CC1 [Saracatinib]
relative viability
Settings	[1]	[2]	[3]	[4]	[5]
0.00017 µM	1.03	1	1.07	1.02	1.02
0.00051 µM	1.05	0.991	1.08	1.09	1.02
0.00152 µM	1.06	0.97	1.07	1.05	0.971
0.00457 µM	1.06	0.983	1.07	1.06	0.965
0.01372 µM	1.04	0.885	1.07	1.08	0.958
0.04115 µM	1.01	0.867	1.08	1.08	0.917
0.1235 µM	0.992	0.869	1.046	0.919	0.91
0.3704 µM	0.963	0.792	0.934	0.739	0.826
1.111 µM	0.882	0.691	0.802	0.568	0.66
3.333 µM	0.679	0.62	0.614	0.486	0.481
10 µM	0.468	0.627	0.451	0.442	0.389

CNC(=O)c1cc(Oc2ccc(NC(=O)Nc3ccc(Cl)c(C(F)(F)F)c3)cc2)ccn1 [Sorafenib]
relative viability
Settings	[1]	[2]	[3]	[4]	[5]
0.00017 µM	1.07	0.948	1.04	1.07	0.968
0.00051 µM	1.1	0.966	1.07	1.06	0.967
0.00152 µM	1.09	0.939	1.09	1.05	0.96
0.00457 µM	1.11	0.978	1.08	1.07	0.95
0.01372 µM	1.06	0.946	1.06	1.06	0.948
0.04115 µM	1.08	1.02	1.08	1.07	0.944
0.1235 µM	0.914	0.937	1.08	1.07	0.916
0.3704 µM	0.567	0.85	1.11	1.07	0.773
1.111 µM	0.51	0.858	1.05	1.06	0.626
3.333 µM	0.385	0.811	0.728	0.992	0.509
10 µM	0.157	0.624	0.309	0.559	0.137

CCN(c1cc(-c2ccc(CN3CCOCC3)cc2)cc(C(=O)NCc2c(C)cc(C)[nH]c2=O)c1C)C1CCOCC1 [Tazemetostat]
relative viability
Settings	[1]	[2]	[3]	[4]	[5]
0.00017 µM	1.04	1.04	1.02	0.968	1.03
0.00051 µM	1.09	1.05	1.031	0.988	1
0.00152 µM	1.08	1.03	1.03	0.977	1.02
0.00457 µM	1.07	1.05	1.03	0.98	1
0.01372 µM	1.03	1.04	1.01	0.973	0.994
0.04115 µM	1.069	1.01	1.03	1.02	1.006
0.1235 µM	1.08	0.98	1.01	0.985	1
0.3704 µM	1.08	1	0.9861	0.951	0.95
1.111 µM	1.08	0.938	0.9866	0.958	0.953
3.333 µM	1.09	0.932	0.975	0.926	0.915
10 µM	1.05	0.892	0.925	0.932	0.873

Cc1cccc(-c2[nH]c(CNc3ccccc3F)nc2-c2ccc3ncnn3c2)n1 [Vactosertib]
relative viability
Settings	[1]	[2]	[3]	[4]	[5]
0.00017 µM	1.02	0.964	1.02	0.9904	0.9167
0.00051 µM	1.02	0.969	1.04	1.02	0.925
0.00152 µM	1.02	0.938	1.03	0.999	0.929
0.00457 µM	1.01	0.962	1.02	0.998	0.895
0.01372 µM	1.02	0.928	1.03	0.9987	0.894
0.04115 µM	1.03	0.939	1	1.03	0.872
0.1235 µM	0.983	0.882	0.992	1.01	0.86
0.3704 µM	1.04	0.849	0.966	0.984	0.808
1.111 µM	1.03	0.787	0.952	1	0.773
3.333 µM	0.953	0.73	0.885	1.02	0.697
10 µM	0.822	0.68	0.708	0.936	0.591
